For this experiment, the target named is T1, 5-HT2 (Rattus norvegicus, UniProt P14842).
T1 construct: Präfrontaler Cortex-Ratte; from tissue; host or cells: rat prefrontal cortex membranes
Put plainly: Affinity to serotonin receptors: 5-HT2, displacement of ^3H-Ketanserin. The experiment is classed as binding. Conditions: Präfrontaler Cortex-Ratte membranes, read-out: Inhibitionskonstante Ki.

SMILES strings stand for the structures.

The term Ki denotes a measure of affinity in units of concentration, obtained from inhibition or displacement.

T1 sequence (P14842 whole entry): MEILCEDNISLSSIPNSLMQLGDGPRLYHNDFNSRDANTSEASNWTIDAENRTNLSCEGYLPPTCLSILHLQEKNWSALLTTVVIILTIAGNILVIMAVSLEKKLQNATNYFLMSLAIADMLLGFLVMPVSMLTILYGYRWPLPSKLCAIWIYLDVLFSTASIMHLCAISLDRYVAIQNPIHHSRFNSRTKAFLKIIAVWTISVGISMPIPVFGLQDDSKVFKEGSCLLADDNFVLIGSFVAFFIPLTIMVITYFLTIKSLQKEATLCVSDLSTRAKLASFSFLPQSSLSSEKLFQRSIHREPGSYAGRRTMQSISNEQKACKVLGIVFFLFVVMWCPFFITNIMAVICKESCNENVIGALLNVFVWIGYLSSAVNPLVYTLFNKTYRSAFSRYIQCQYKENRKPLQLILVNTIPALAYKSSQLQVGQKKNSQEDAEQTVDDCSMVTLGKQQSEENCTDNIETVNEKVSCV

As for `CCCN(CCC)C1Cc2c[nH]c3ccc(OC)c(c23)C1` (stereo not shown) [Beispiel 1, 6-Methoxy-4-dipropylamino-1,3,4,5-tetrahydrobenz[c,d]-indol], the Ki was found to be 1.8 µM.

Source of the values: patent publication EP0148440A1, “1,3,4,5-Tetrahydrobenzo(c,d)indoles, process for their preparation and their uses” (Troponwerke GmbH & Co. KG, priority 1983, dated 1985).
